Like-named read-outs stand apart in the source and are kept apart here.
Assays:
human recombinant BACE2 = human recombinant BACE2 (Homo sapiens (Human), UniProt Q9Y5Z0); experiment: In vitro enzymatic BACE2 FRET assay; assay type: biochemical; details: read-out: IC50 IP (μM) BACE2 enzyme
Protocol: (§1) These recombinant proteins were further purified using Ni-NTA affinity chromatography (Qiagen). […] This assay is effectively started by the addition of FRET substrate (50 nM) and the combination is incubated for one hour. The FRET assay is terminated by addition of Tris buffer, which raises the pH to neutrality, and the fluorescence is determined. The FRET substrate is a peptide with commercially available fluorophore and quencher, on opposite sides of the BACE cleavage site. Proteolytic cleavage of the FRET substrate releases quenching of fluorescence (excitation 488 nm and emission 590 nm).

human recombinant BACE1 = human recombinant BACE1 (Homo sapiens (Human), UniProt P56817); experiment: In vitro enzymatic BACE1 FRET assay; assay type: biochemical; details: read-out: IC50 IP (μM) BACE1 enzyme
human recombinant BACE1, sequence (P56817 46-501): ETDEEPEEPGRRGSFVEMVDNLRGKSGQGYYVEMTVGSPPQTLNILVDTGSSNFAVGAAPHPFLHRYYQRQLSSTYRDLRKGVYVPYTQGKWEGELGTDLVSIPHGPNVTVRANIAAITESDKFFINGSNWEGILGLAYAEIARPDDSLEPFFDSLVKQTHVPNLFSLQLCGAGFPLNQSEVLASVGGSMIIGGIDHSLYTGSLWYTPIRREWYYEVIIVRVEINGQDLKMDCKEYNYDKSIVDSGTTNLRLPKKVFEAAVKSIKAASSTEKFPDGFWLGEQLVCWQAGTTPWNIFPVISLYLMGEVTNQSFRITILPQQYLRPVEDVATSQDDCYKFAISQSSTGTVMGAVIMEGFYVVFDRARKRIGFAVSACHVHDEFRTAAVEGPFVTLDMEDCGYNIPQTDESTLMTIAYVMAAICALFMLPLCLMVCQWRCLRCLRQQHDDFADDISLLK
Protocol: as §1

[1] = system: Aβ40 in conditioned medium of cells stably expressing Amyloid Precursor Protein (APP); experiment: In vitro BACE-1 cell-based assay (Aβ40 sandwich ELISA); details: read-out: IC50 IP (μM) BACE1 cell
Protocol: In Vitro BACE-1 Cell-Based Assay
The cell-based assay measures inhibition or reduction of Aβ40 in conditioned medium of test compound treated cells expressing amyloid precursor protein. Cells stably expressing Amyloid Precursor Protein (APP) were plated at a density of 40K cells/well in 96 well plates (Costar). The cells were cultivated for 24 hours at 37° C. and 5% CO2 in DMEM supplemented with 10% FBS. The test compounds were then added to cells in 10-point dose response concentrations with the starting concentration being either 100 μM or 10 μM. The compounds were diluted from stock solutions in DMSO and the final DMSO concentration of the test compounds on cells was 0.1%. After 24 h of incubation with the test compounds the supernatant conditioned media was collected and the Aβ40 levels were determined using a sandwich ELISA. The IC50 of the compound was calculated from the percent of control or percent inhibition of Aβ40 as a function of the concentration of the test compound.
The sandwich ELISA to detect Aβ40 was performed in 96 well microtiter plates, which were pre-treated with goat anti-rabbit IgG (Pierce). The capture and detecting antibody pair that were used to detect Aβ40 from cell supernatants were affinity purified pAb40 (Biosource) and biotinylated 6E10 (Signet Labs Inc.), respectively. The optimal concentration for the pAb40 antibody was 3 μg/ml in Superblock/TBS (Pierce) that was supplemented with 0.05% Tween 20 (Sigma). […] Cellular supernatants were incubated with the capture antibody for 3 h at 4° C., followed by 3 wash steps in TBS-tween (0.05%). The detecting antibody incubation was for 2 h at 4° C., again followed by the wash steps as described previously. The final readout of the ELISA is Time-Resolved Fluorescence (counts per minute) using Delfia reagents Streptavidin-Europium and Enhancement solutions (Perkin Elmer) and the Victor 2 multilabel counter (Perkin Elmer).

Recombinant Cat D = Recombinant Cat D (Homo sapiens (Human), UniProt P07339); experiment: In vitro enzymatic Cathepsin D (Cat D) FRET assay; assay type: biochemical; details: read-out: IC50 IP (μM) CatD
Recombinant Cat D, sequence (P07339 65-412): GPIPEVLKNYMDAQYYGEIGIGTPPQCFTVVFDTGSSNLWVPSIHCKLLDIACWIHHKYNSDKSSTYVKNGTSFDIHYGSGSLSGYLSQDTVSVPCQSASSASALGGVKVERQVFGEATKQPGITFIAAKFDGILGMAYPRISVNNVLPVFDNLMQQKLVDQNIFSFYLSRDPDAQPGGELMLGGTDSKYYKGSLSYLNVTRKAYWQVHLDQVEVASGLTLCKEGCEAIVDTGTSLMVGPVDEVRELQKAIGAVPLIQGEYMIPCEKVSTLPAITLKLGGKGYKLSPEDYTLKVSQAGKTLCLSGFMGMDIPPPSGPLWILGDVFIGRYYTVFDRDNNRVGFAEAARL
Protocol: In Vitro Enzymatic Cathepsin D (Cat D) FRET (Fluorescence Resonance Energy Transfer) Assay
Recombinant Cat D was expressed in CHO cells. The assay buffer for CathepsinD is 0.05 M citrate pH 3.5, 10% DMSO final, 5 mM CHAPS. […] The assays are effectively started by the addition of different FRET substrates (20 nM for Cat D) and the combination is incubated for one hour. The FRET assay is terminated with by addition of Tris buffer, which raises the pH to neutrality, and the fluorescence is determined. The FRET substrate is a peptide with commercially available fluorophore and quencher, on opposite sides of the BACE cleavage site. The Cat D substrate peptide sequence is based on sequence #1 of Table 1 from Gulnik et al. FEBS Letters v413 p 379-384 1997. Proteolytic cleavage of the FRET substrate releases quenching of fluorescence (Cat D excitation 500 nm and emission 580 nm).

human recombinant BACE2, sequence (Q9Y5Z0 63-518): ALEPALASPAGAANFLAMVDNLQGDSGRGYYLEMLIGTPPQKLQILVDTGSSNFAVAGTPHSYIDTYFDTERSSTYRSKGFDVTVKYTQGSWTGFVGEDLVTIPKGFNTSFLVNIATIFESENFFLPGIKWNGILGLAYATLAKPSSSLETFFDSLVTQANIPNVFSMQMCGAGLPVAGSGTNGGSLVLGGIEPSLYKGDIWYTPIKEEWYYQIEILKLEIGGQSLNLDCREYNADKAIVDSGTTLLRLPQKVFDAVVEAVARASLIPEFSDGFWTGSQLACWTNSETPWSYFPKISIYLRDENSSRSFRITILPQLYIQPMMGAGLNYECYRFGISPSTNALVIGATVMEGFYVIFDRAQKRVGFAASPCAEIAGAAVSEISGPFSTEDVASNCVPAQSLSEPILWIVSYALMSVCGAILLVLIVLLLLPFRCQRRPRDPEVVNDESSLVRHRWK

| IC50 (human recombinant BACE2) [µM] | IC50 (human recombinant BACE1) [µM] | IC50 [1] [µM] | IC50 (Recombinant Cat D) [µM] | IC50 (human recombinant BACE2; BACE2 FRET enzyme assay) [µM] | IC50 (human recombinant BACE1; BACE1 FRET enzyme assay) [µM] | IC50 ([1]; BACE1 cell-based assay) [µM] | IC50 (Recombinant Cat D; Cathepsin D FRET enzyme assay) [µM] | SMILES |
| --- | --- | --- | --- | --- | --- | --- | --- | --- |
| 0.13 | 0.00427 | 0.0119 | > 400 | – | – | – | – | C[C@]1(c2cc(Nc3nccc4nc(OCc5ncccn5)cnc34)cc(F)c2F)N=C(N)S[C@@]2(C(F)F)C[C@@H]12 [Example 884, N-(3-((1S,5S,6S)-3-amino-1-(difluoromethyl)-5-methyl-2-thia-4-azabicyclo[4.1.0]hept-3-en-5-yl)-4,5-difluorophenyl)-2-(2-pyrimidinylmethoxy)pyrido[3,4-b]pyrazin-5-amine] |
| 0.0255 | 0.00801 | 0.00812 | 360 | – | – | – | – | C[C@@H](O)[C@]12C[C@H]1[C@@](C)(c1cc(Nc3ncnc4cc(C#N)cnc34)cc(F)c1F)N=C(N)S2 [Example 908] |
| 0.00982 | 0.000266 | 0.000106 | 22.5 | – | – | – | – | C#CCOc1cnc(C(=O)Nc2ccc(F)c([C@@]3(C)N=C(N)S[C@@]4(C(=O)NCC)C[C@H]43)c2)cn1 [Example 1017, (1S,5S,6S)-3-amino-N-ethyl-5-(2-fluoro-5-(5-(prop-2-yn-1-yloxy)pyrazine-2-carboxamido)phenyl)-5-methyl-2-thia-4-azabicyclo[4.1.0]hept-3-ene-1-carboxamide] |
| 0.878 | 0.0174 | 0.214 | 1060 | – | – | – | – | COC[C@]12C[C@H]1[C@@](C)(c1cc(NC(=O)c3cnc(OCC(C)(C)C)cn3)cc(F)c1F)N=C(N)S2 [Example 1069, N-(3-((1S,5S,6S)-3-amino-1-(methoxymethyl)-5-methyl-2-thia-4-azabicyclo[4.1.0]hept-3-en-5-yl)-4,5-difluorophenyl)-5-(neopentyloxy)pyrazine-2-carboxamide] |
| 0.0362 | 0.00209 | 0.00389 | > 400 | – | – | – | – | Cc1nc(OCc2ncco2)cnc1C(=O)Nc1ccc(F)c([C@@]2(C)N=C(N)S[C@@]3(C(F)F)C[C@@H]23)c1 [Example 836, N-(3-((1S,5S,6S)-3-amino-1-(difluoromethyl)-5-methyl-2-thia-4-azabicyclo[4.1.0]hept-3-en-5-yl)-4-fluorophenyl)-3-methyl-5-(1,3-oxazol-2-ylmethoxy)-2-pyrazinecarboxamide] |
| 0.0167 | 0.00057 | 0.000489 | 1330 | – | – | – | – | Cc1cc(NC(=O)c2cnc(OCc3ncco3)cn2)cc([C@@]2(C)N=C(N)S[C@@]3(C(F)F)C[C@@H]23)c1F [Example 1074, N-(3-((1S,5S,6S)-3-amino-1-(difluoromethyl)-5-methyl-2-thia-4-azabicyclo[4.1.0]hept-3-en-5-yl)-4-fluoro-5-methylphenyl)-5-(oxazol-2-ylmethoxy)pyrazine-2-carboxamide] |
| 0.00979 | 0.000319 | 0.00121 | 101 | – | – | – | – | C#CCOc1cnc(C(=O)Nc2ccc(F)c([C@@]3(C)N=C(N)S[C@]4(CO)[C@H]3C4(F)F)c2)cn1 [Example 749, N-(3-((1S,5S,6R)-3-amino-7,7-difluoro-1-(hydroxymethyl)-5-methyl-2-thia-4-azabicyclo[4.1.0]hept-3-en-5-yl)-4-fluorophenyl)-5-(2-propyn-1-yloxy)-2-pyrazinecarboxamide] |
| 0.152 | 0.0078 | 0.0095 | – | – | – | – | – | C#CCCOc1cnc(C(=O)Nc2ccc(F)c([C@@]3(C)N=C(N)S[C@@]4(COC)C[C@H]43)c2)cn1 [Example 1048, N-(3-((1S,5S,6S)-3-amino-1-(methoxymethyl)-5-methyl-2-thia-4-azabicyclo[4.1.0]hept-3-en-5-yl)-4-fluorophenyl)-5-(3-butyn-1-yloxy)-2-pyrazinecarboxamide] |

More lines, now with the values behind:

| SMILES | IC50 (human recombinant BACE2) [µM] | IC50 (human recombinant BACE1) [µM] | IC50 [1] [µM] | IC50 (Recombinant Cat D) [µM] | IC50 (human recombinant BACE2; BACE2 FRET enzyme assay) [µM] | IC50 (human recombinant BACE1; BACE1 FRET enzyme assay) [µM] | IC50 ([1]; BACE1 cell-based assay) [µM] | IC50 (Recombinant Cat D; Cathepsin D FRET enzyme assay) [µM] |
| --- | --- | --- | --- | --- | --- | --- | --- | --- |
| C[C@]1(c2cc(NC(=O)c3ccc(Cl)cn3)cnc2F)N=C(N)S[C@H]2C[C@H]21 [Example 637, N-(5-((1S,5S,6S)-3-Amino-5-methyl-2-thia-4-azabicyclo[4.1.0]hept-3-en-5-yl)-6-fluoropyridin-3-yl)-5-chloropicolinamide] | 0.00261 | 0.0213 | 0.0121 | > 400 | – | – | – | – |
| NC1=N[C@](CF)(c2cc(Nc3nccc4nc(C(F)(F)F)cnc34)ccc2F)C2C[C@@H]2S1 (stereo in doubt) [Example 87, N-(3-((1S,5S,6S)-3-amino-5-(fluoromethyl)-2-thia-4-azabicyclo[4.1.0]hept-3-en-5-yl)-4-fluorophenyl)-2-(trifluoromethyl)pyrido[3,4-b]pyrazin-5-amine] | – | – | – | – | 0.271 | 0.114 | 22.6 | 2810 |
| [2H]C([2H])([2H])OC[C@]12C[C@H]1[C@@](C)(c1cc(NC(=O)c3ncc(OCC#C)nc3C)cnc1F)N=C(N)S2 [Example 850, N-(5-((1S,5S,6S)-3-amino-5-methyl-1-(((~2~H_3_)methyloxy)methyl)-2-thia-4-azabicyclo[4.1.0]hept-3-en-5-yl)-6-fluoro-3-pyridinyl)-3-methyl-5-(2-propyn-1-yloxy)-2-pyrazinecarboxamide] | 0.00886 | 0.00121 | 0.00207 | 1150 | – | – | – | – |
| C#CCOc1ccc(C(=O)Nc2ccc(F)c([C@@]3(CF)N=C(N)S[C@@]4(c5ccon5)C[C@@H]34)c2)nc1 [Example 793, N-(3-((1S,5S,6S)-3-amino-5-(fluoromethyl)-1-(3-isoxazolyl)-2-thia-4-azabicyclo[4.1.0]hept-3-en-5-yl)-4-fluorophenyl)-5-(2-propyn-1-yloxy)-2-pyridinecarboxamide] | 0.00477 | 0.000293 | 0.0153 | 482 | – | – | – | – |
| COC[C@]12C[C@H]1[C@@](CF)(c1cc(Nc3ncnc4cc(Cl)cnc34)ccc1F)N=C(N)S2 [Example 73, N-(3-((1S,5S,6S)-3-amino-5-(fluoromethyl)-1-(methoxymethyl)-2-thia-4-azabicyclo[4.1.0]hept-3-en-5-yl)-4-fluorophenyl)-7-chloropyrido[3,2-d]pyrimidin-4-amine] | – | – | – | – | 0.00296 | 0.00911 | 0.0177 | > 400 |
| Cc1cc(Cl)cnc1C(=O)Nc1cc(F)c(F)c([C@@]2(C)N=C(N)S[C@H]3C[C@H]32)c1 [Example 8, N-(3-((1S,5S,6S)-3-amino-5-methyl-2-thia-4-azabicyclo[4.1.0]hept-3-en-5-yl)-4,5-difluorophenyl)-5-chloro-3-methyl-2-pyridinecarboxamide] | – | – | – | – | – | 0.00528 | 0.0563 | 418 |
| COc1cnc(C(=O)Nc2cc(F)c(F)c([C@@]3(CF)N=C(N)S[C@H]4C[C@H]43)c2)c(C)n1 [Example 17, N-(3-((1S,5S,6S)-3-amino-5-(fluoromethyl)-2-thia-4-azabicyclo[4.1.0]hept-3-en-5-yl)-4,5-difluorophenyl)-5-methoxy-3-methyl-2-pyrazinecarboxamide] | – | – | – | – | – | 0.026 | 0.0548 | 863 |
| Cc1cc(OC(F)F)cnc1C(=O)Nc1cc(F)c(F)c([C@@]2(C)N=C(N)S[C@H]3C[C@H]32)c1 [Example 15, N-(3-((1S,5S,6S)-3-amino-5-methyl-2-thia-4-azabicyclo[4.1.0]hept-3-en-5-yl)-4,5-difluorophenyl)-5-(difluoromethoxy)-3-methyl-2-pyridinecarboxamide] | – | – | – | – | – | 0.0124 | 0.00994 | 506 |

— patent US20160046618A1, “Cyclopropyl Fused Thiazin-2-Amine Compounds as Beta-Secretase Inhibitors and Methods of Use” (AMGEN INC., priority 2014, published 2016)
